Read-outs that look alike come from different tables or passages of the source.
Assays:
[1] = test system: Shionogi mouse mammary carcinoma cells; test: Antiandrogenic activity: inhibition of DHT-induced proliferation of Shionogi cells; type: cell-based; details: for IC50: Mus musculus
Experimental: The manner in which the inhibition is determined is described in “Other Tests; B-Androgenic/Antiandrogenic Activity”. Lower numbers are desirable. ND means that a determination was not done.
Androgenic/antiandrogenic activity of some preferred compounds has been measured using the Shionogi mouse mammary carcinoma cells.
Minimal essential culture medium (MEM), non-essential amino acids, and fetal calf serum were purchased from Flow Laboratories. In order to remove endogenous steroids, serum was incubated overnight at 4° C. with 1% activated charcoal (Norit A, Fisher) and 0.1% Dextran T-70 (Pharmacia). A 2-h supplementary adsorption was performed at 25° C. in order to further remove protein-bound steroids. Serum was also inactivated by a 20-min incubation at 56° C.
5α-dihydrotestosterone (DHT) was obtained from Steraloids. The antiandrogen hydroxyflutamide (OH-FLU) was kindly supplied by Drs. T. L. Nagabuschan and R. Neri (Schering Corporation, Kenilworth, U.S.A.).
Shionogi male mice bearing androgen-sensitive mammary tumors were obtained from Drs. Keishi Matsumoto, Osaka, Japan, and Yvonne Lefebvre, Ottawa, Canada. For primary culture, tumors were excised and washed in ice-cold sterile 25 mM Hepes buffer (137 mM NaCl; 5 mM KCl; 0.7 mM Na2HPO4; 10 mM glucose, pH 7.2). After mincing with scissors, the tumor minces were digested for 2 h at 37° C. in Hepes buffer containing 3.8 mg/ml collagenase (Clostridium, Boehringer), 1.5 mg/ml hyaluronidase II (Sigma), and 3% bovine serum albumin fraction V (Schwartz-Mann). Dispersed cells were collected by centrifugation (500×g for 10 min), washed twice by suspension in minimal essential medium (MEM) containing 5% dextran-coated charcoal-treated fetal calf serum (DCC-FCS), 1% non-essential amino acids, 10 IU/ml penicillin, 50 μg/ml streptomycin, and 100 nM dihydrotestosterone (DHT) (Steraloids).
Cells were plated in the same medium at a density of 75 000 cells/ml in 75 cm^2 flasks under an atmosphere of 5% carbon dioxide in air at 37° C. The medium was changed weekly. The steroids and antisteroids were dissolved in ethanol and kept in stock solutions chosen to yield final ethanol concentrations less than 0.01% in the culture medium.
Cells were subcultured at near-confidence by gentle digestion in a solution of 0.1% pancreatin (Flow Laboratories) in Hepes buffer containing 3 mM ethylenediaminetetraacetic acid (EDTA) (pH 7.2). Cells were pelleted by centrifugation, resuspended in culture medium, counted in a Coulter counter, and replated as described above. Soft agar cloning was performed as described (Stanley et al., Cell 10: 35-44, 1977) in the presence of 100 nM DHT.
Cells were plated in 24-well plates at a density of 20 000 cells/well. The indicated increasing concentrations of agents were added to triplicate dishes, and cells were grown for 10-12 days with changes of medium every 3-4 days. Cell number was measured by direct counting in a Coulter counter.
ED50 values of action of DHT and glucocorticoids were calculated according to a least-square regression as described (Rodbard, Endocrinology 94: 1427-1431, 1974). Statistical significance was calculated according to a multiple-range test (Kramer, Biometrics 12: 307-310,1956).

estrogen receptor = molecular target: T1, estrogen receptor (Rattus norvegicus, UniProt P06211); test: Estrogen receptor (ER) assay: inhibition of [3H]E2 binding, uterine cytosol
T1 construct: from tissue; host or cells: uterine cytosol of gonadectomized female Sprague-Dawley rats
T1 sequence (P06211 1-600): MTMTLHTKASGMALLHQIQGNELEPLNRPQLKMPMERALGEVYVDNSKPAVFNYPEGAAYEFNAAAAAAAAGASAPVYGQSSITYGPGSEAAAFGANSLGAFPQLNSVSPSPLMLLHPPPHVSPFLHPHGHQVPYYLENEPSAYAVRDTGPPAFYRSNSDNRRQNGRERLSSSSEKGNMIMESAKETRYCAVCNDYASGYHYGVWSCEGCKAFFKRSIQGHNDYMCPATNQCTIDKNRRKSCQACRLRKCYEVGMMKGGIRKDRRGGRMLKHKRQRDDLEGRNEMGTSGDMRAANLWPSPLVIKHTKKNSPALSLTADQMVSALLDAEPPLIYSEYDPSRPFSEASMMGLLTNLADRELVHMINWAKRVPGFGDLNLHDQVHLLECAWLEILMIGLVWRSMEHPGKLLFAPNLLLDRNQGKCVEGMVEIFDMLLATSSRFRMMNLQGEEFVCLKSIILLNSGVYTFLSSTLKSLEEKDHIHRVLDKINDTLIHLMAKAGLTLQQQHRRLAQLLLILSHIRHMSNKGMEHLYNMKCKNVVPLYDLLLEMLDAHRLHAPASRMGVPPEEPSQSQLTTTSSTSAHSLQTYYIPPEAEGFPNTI
Experimental: Female Sprague-Dawley rats (Crl: CD(SD)Br) weighing 200-300 g were obtained from Charles-River Inc. (St-Constant, Québec, Canada). The rats were gonadectomized under general anesthesia (Isoflurane) and killed by cervical dislocation 24 hours later. The uteri were rapidly removed, dissected free from adhering tissue and frozen on dry-ice. Uteri were kept at −80° C. until assay. All subsequent steps were performed at 0-4° C. Uteri were homogenized in 10 vol (wt/vol) of buffer A (25 mM Tris-HCI, 1.5 mM EDTA disodium salt, 10 mM α-monothioglycerol, 10% glycerol, and 10 mM sodium molybdate, pH 7.4), using a Polytron PT-10 homogenizer (Brinkman Instruments, Canada) at a setting of 5 for three periods of 10 sec, with intervals of 10 sec for cooling. The homogenate was then centrifuged at 105,000×g for 60 min in a Beckman L5-65 ultracentrifuge (Fullerton, Calif.). The protein concentration of the cytosol fraction was measured according to the method of Bradford (Anal. Biochem. 72: 248-254, 1976), using bovine serum albumin as standard.
Estrogen binding was measured using the dextran-coated charcoal adsorption technique as described previously (Asselin et al., Endocrinology, 101: 666-671, 1977; Asselin and Labrie, J. Steroid Biochem., 9: 1079-1082, 1978). Briefly, [^3H]E2 solubilized in ethanol were diluted into buffer A. Aliquots of uterine cytosol preparation (0.1 ml) were incubated with 5 nM [^3H]E2 (˜200,000 cpm, 0.1 ml) in the presence or absence of the indicated concentrations of unlabeled compounds (0.1 ml, prepared in buffer A containing 10% ethanol) for 3 h at room temperature. Unbound steroids were then separated by incubation for 15 min at 0-4° C. with 0.3 ml 0.5% Norit-A and 0.05% Dextran T-70 in buffer B (1.5 mM EDTA disodium salt, 10 mM monothioglycerol, and 10 mM Tris-HCI, pH 7.4) and centrifuged at 3,000×g for 15 min. Aliquots of the supernatant (0.3 ml) were removed for radioactivity measurement.

[2] = Table 4′, DHT-induced proliferation, E^−6 (10^−6 M)
[3] = Table 4′, DHT-induced proliferation, E^−7

## COCCOc1cc2c(cc1C(=O)O)C1CCC3(C)C(CCC34CCC(C)(C)C(=O)O4)C1CC2 [EM-1405, 2-Carboxy-3-(2″-methoxyethyloxy)-1,3,5(10)-estratrien-17(R)-spiro-2′-(5′,5′-dimethyl-6′-oxo)tetrahydropyran]
[1]; [2]
  Antiandrogenic Activity Shionogi, DHT E^−6: 0%
[1]; [3]
  Antiandrogenic Activity Shionogi, DHT E^−7: 0%
Estrogen receptor; Table 4′
  % Inhibition Estrogen Receptor E^−6: 0%
  % Inhibition Estrogen Receptor E^−8: 0%

## CN1C(=O)C=C[C@]2(C)C3CC[C@@]4(C)C(CC[C@@]45CCCC(=O)O5)C3CCC12 (stereo partly drawn) [EM-1122-CS]
[1]; Table 5, bracketed value, read-out: Antiandrogenic Activity Shlonogl, DHT [IC50 (nM)]
  IC50: 447 nM
[1]; Table 5, DHT, E^−6
  Antiandrogenic Activity Shlonogl, DHT E^−6: −74%
[1]; Table 5, DHT, E^−7
  Antiandrogenic Activity Shlonogl, DHT E^−7: −14%
Estrogen receptor; Table 5 column 16
  % Inhibition Estrogen Receptor E^−6: 0%
  % Inhibition Estrogen Receptor E^−8: 2%

## COCCOc1ccc2c(c1)C(=O)CC1C2CCC2(C)C1CCC21CCC(C)(C)C(=O)O1 (stereo not drawn) [EM-1408-CS]
[1]; [2]
  Antiandrogenic Activity Shionogi, DHT E^−6: −94%
[1]; [3]
  Antiandrogenic Activity Shionogi, DHT E^−7: −19%
Estrogen receptor; Table 4′
  % Inhibition Estrogen Receptor E^−6: 6%
  % Inhibition Estrogen Receptor E^−8: 0%

## COc1ccc2c(c1)C(=O)CC1C2CC[C@@]2(C)C1CC[C@@]21CCC(C)(C)C(=O)O1 (stereo partly drawn) [EM-1394]
[1]; [2]
  Antiandrogenic Activity Shionogi, DHT E^−6: −23%
[1]; [3]
  Antiandrogenic Activity Shionogi, DHT E^−7: 0%
Estrogen receptor; Table 4′
  % Inhibition Estrogen Receptor E^−6: 8%
  % Inhibition Estrogen Receptor E^−8: 4%

## COCCOc1cc2c(cc1F)C1CCC3(C)C(CCC34CCC(C)(C)C(=O)O4)C1CC2 (stereo not drawn) [EM-1393-CS]
[1]; [2]
  Antiandrogenic Activity Shionogi, DHT E^−6: −104%
[1]; [3]
  Antiandrogenic Activity Shionogi, DHT E^−7: 27%

## CC(=O)O[C@]1(C)C(=O)CCC2C3C=C(C)C4=CC(=O)C=C[C@]4(C)C3CC[C@@]21C (stereo partly drawn) [CS-237]
[1]; with DHT, value in square brackets on second line, read-out: Antiandrogenic Activity Shionogi DHT [IC50 (nM)]
  IC50: 95 nM
[1]; with DHT, E^−6
  Antiandrogenic Activity Shionogi, DHT E^−6: −106
[1]; with DHT, E^−7
  Antiandrogenic Activity Shionogi, DHT E^−7: −51
Estrogen receptor
  % Inhibition Estrogen Receptor E^−6: 0%
  % Inhibition Estrogen Receptor E^−8: 0%

## CC1(C)CC[C@@]2(CCC3C4CCc5cc(C(=O)O)ccc5C4CC[C@@]32C)OC1=O (stereo partly drawn) [EM-1401, 3-Carboxy-1,3,5(10)-estratrien-17(R)-spiro-2′-(5′,5′-dimethyl-6′-oxo)tetrahydropyran]
[1]; Table 4′, bracketed values, read-out: Antiandrogenic Activity Shionogi, DHT [IC50 (nM)]
  IC50: > 1000 nM
Estrogen receptor; Table 4′
  % Inhibition Estrogen Receptor E^−6: 2%
  % Inhibition Estrogen Receptor E^−8: 5%

## COCCOc1cc2c(cc1C(=O)N(C)C)C1CCC3(C)C(CCC34CCC(C)(C)C(=O)O4)C1CC2 (stereo not drawn) [EM-1413-CS]
[1]; [2]
  Antiandrogenic Activity Shionogi, DHT E^−6: −44%

## COC(=O)C1CCC2(CCC3C4CCc5cc(O)ccc5C4CCC32C)OC1=O [PB-132-146, 3-Hydroxy-1,3,5(10)-estratrien-17(R)-2′-(5′-methoxycarbonyl-6′-oxo)tetrahydropyran]
[1]; [2]
  Antiandrogenic Activity Shionogi, DHT E^−6: −40%
[1]; [3]
  Antiandrogenic Activity Shionogi, DHT E^−7: 14%

## COc1cc2c(cc1C(F)(F)F)C1CCC3(C)C(CCC34CCC(C)(C)C(=O)O4)C1CC2 [EM-1409, 3-Methoxy-2-trifluoromethyl-1,3,5(10)-estratrien-17(R)-spiro-2′-(5′,5′-dimethyl-6′-oxo)tetrahydropyran]
[1]; [2]
  Antiandrogenic Activity Shionogi, DHT E^−6: −105%
[1]; [3]
  Antiandrogenic Activity Shionogi, DHT E^−7: −5%

## CN(C)C(=O)c1cc2c(cc1O)CCC1C2CCC2(C)C1CCC21CCC(C)(C)C(=O)O1 (stereo not drawn) [EM-01661-B]
[1]; [2]
  Antiandrogenic Activity Shionogi, DHT E^−6: −15%
[1]; [3]
  Antiandrogenic Activity Shionogi, DHT E^−7: 3%

## CC12CCC3c4ccc(O)cc4CCC3C1CCC21CC=CC(=O)O1 [PB-132-140, 3-hydroxy-1,3,5(10)-estratrien-17(R)-spiro-2′-(4′,5′-dihydro-6′-oxo)pyran]
[1]; [2]
  Antiandrogenic Activity Shionogi, DHT E^−6: 0%
[1]; [3]
  Antiandrogenic Activity Shionogi, DHT E^−7: 16%

## COC(=O)c1cc2c(cc1O)CCC1C2CCC2(C)C1CCC21CCC(C)(C)C(=O)O1 (stereo not drawn) [EM-01662]
[1]; [2]
  Antiandrogenic Activity Shionogi, DHT E^−6: −51%
[1]; [3]
  Antiandrogenic Activity Shionogi, DHT E^−7: −11%

## CC1=C[C@@H]2[C@H](CC[C@]3(C)C(=O)C4(CCCCC4)C[C@@H]23)[C@@]2(C)CCC(=O)C=C12 [EM-925]
[1]; with DHT, E^−6
  Antiandrogenic Activity Shionogi, DHT E^−6: −7
[1]; with DHT, E^−7
  Antiandrogenic Activity Shionogi, DHT E^−7: 15

## CC(=O)O[C@]1(C(C)=O)CCC2C3C=C(C)C4=CC(=O)CC[C@]4(C)C3CC[C@@]21C (stereo partly drawn) [megestrol acetate, reference compound]
[1]; read-out: Antiandrogenic Activity Shionogi, DHT [IC50]
  IC50: 10 nM

## CC1CC(=O)OC2(CCC3C4CCc5cc(O)ccc5C4CCC32C)C1 [PB-132-142, 3-Hydroxy-1,3,5(10)-estratrien-17(R)-spiro-2′-(4′-methyl-6′-oxo)tetrahydropyran]
[1]; [2]
  Antiandrogenic Activity Shionogi, DHT E^−6: −13%
[1]; [3]
  Antiandrogenic Activity Shionogi, DHT E^−7: 0%

## CC1(C)CCC2(CCC3C4CCc5cc(C(=O)OCc6ccccc6)ccc5C4CCC32C)OC1=O (stereo not drawn) [EM-1398]
[1]; [2]
  Antiandrogenic Activity Shionogi, DHT E^−6: −37%
[1]; [3]
  Antiandrogenic Activity Shionogi, DHT E^−7: 0%

## CC1(C)CCC2(CCC3C4CCc5cc(O)c(C(N)=O)cc5C4CCC32C)OC1=O (stereo not drawn) [EM-01660]
[1]; [2]
  Antiandrogenic Activity Shionogi, DHT E^−6: −51%
[1]; [3]
  Antiandrogenic Activity Shionogi, DHT E^−7: −20%

## CC1(C)CCC2(CCC3C4CCc5cc(O)c(C#N)cc5C4CCC32C)OC1=O (stereo not drawn) [EM-01645]
[1]; [2]
  Antiandrogenic Activity Shionogi, DHT E^−6: −10%
[1]; [3]
  Antiandrogenic Activity Shionogi, DHT E^−7: −6%

## C=CCC1CCC2(CCC3C4CCc5cc(O)ccc5C4CCC32C)OC1=O [PB-132-152, 3-Hydroxy-1,3,5(10)-estratrien-17(R)-2′-(5′-allyl-6′-oxo)tetrahydropyran]
[1]; [2]
  Antiandrogenic Activity Shionogi, DHT E^−6: −19%
[1]; [3]
  Antiandrogenic Activity Shionogi, DHT E^−7: 14%

Source: US6541463B1, “Inhibitors of type 5 and type 3 17β-hydroxysteroid dehydrogenase and methods for their use” (Endorecherche, Inc., priority 1998, dated 2003)
